{"source": "PubChem BioAssay (NCI)", "assay_in_all_cases": "NCI tumour cell line growth inhibition, 48 h", "key": {"[1]": {"test_system": "786-0 renal"}, "[2]": {"test_system": "A498 renal"}, "[3]": {"test_system": "A549 NSCLC"}, "[4]": {"test_system": "ACHN renal"}, "[5]": {"test_system": "BT-549 breast"}, "[6]": {"test_system": "CAKI-1 renal"}, "[7]": {"test_system": "CCRF-CEM leukemia"}, "[8]": {"test_system": "COLO 205 colon"}, "[9]": {"test_system": "DU-145 prostate"}, "[10]": {"test_system": "EKVX NSCLC"}, "[11]": {"test_system": "HCC-2998 colon"}, "[12]": {"test_system": "HCT-116 colon"}, "[13]": {"test_system": "HCT-15 colon"}, "[14]": {"test_system": "HL-60(TB) leukemia"}, "[15]": {"test_system": "HOP-62 NSCLC"}, "[16]": {"test_system": "HOP-92 NSCLC"}, "[17]": {"test_system": "HS 578T breast"}, "[18]": {"test_system": "HT29 colon"}, "[19]": {"test_system": "IGROV1 ovarian"}, "[20]": {"test_system": "K-562 leukemia"}, "[21]": {"test_system": "KM12 colon"}, "[22]": {"test_system": "LOX IMVI melanoma"}, "[23]": {"test_system": "M14 melanoma"}, "[24]": {"test_system": "MALME-3M melanoma"}, "[25]": {"test_system": "MCF7 breast"}, "[26]": {"test_system": "MDA-MB-231 breast"}, "[27]": {"test_system": "MDA-MB-435"}, "[28]": {"test_system": "MDA-N"}, "[29]": {"test_system": "MOLT-4 leukemia"}, "[30]": {"test_system": "NCI-H226 lung"}, "[31]": {"test_system": "NCI-H23 lung"}, "[32]": {"test_system": "NCI-H460 lung"}, "[33]": {"test_system": "NCI-H522 lung"}, "[34]": {"test_system": "NCI/ADR-RES ovarian"}, "[35]": {"test_system": "OVCAR-3 ovarian"}, "[36]": {"test_system": "OVCAR-4 ovarian"}, "[37]": {"test_system": "OVCAR-5 ovarian"}, "[38]": {"test_system": "OVCAR-8 ovarian"}, "[39]": {"test_system": "PC-3 prostate"}, "[40]": {"test_system": "RPMI-8226 leukemia"}, "[41]": {"test_system": "RXF 393 renal"}, "[42]": {"test_system": "SF-268 CNS"}, "[43]": {"test_system": "SF-295 CNS"}, "[44]": {"test_system": "SF-539 CNS"}, "[45]": {"test_system": "SK-MEL-2 melanoma"}, "[46]": {"test_system": "SK-MEL-28 melanoma"}, "[47]": {"test_system": "SK-MEL-5 melanoma"}, "[48]": {"test_system": "SK-OV-3 ovarian"}, "[49]": {"test_system": "SN12C renal"}, "[50]": {"test_system": "SNB-19 CNS"}, "[51]": {"test_system": "SNB-75 CNS"}, "[52]": {"test_system": "SR leukemia"}, "[53]": {"test_system": "SW-620 colon"}, "[54]": {"test_system": "T-47D breast"}, "[55]": {"test_system": "TK-10 renal"}, "[56]": {"test_system": "U251 CNS"}, "[57]": {"test_system": "UACC-257 melanoma"}, "[58]": {"test_system": "UACC-62 melanoma"}, "[59]": {"test_system": "UO-31 renal"}}, "note": "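Tested at 5 concentrations; 48 h exposure; 96-well plates; endpoints linearly interpolated, else capped at highest concentration. TGI: total growth inhibition.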", "data": [{"smiles": "COc1ccc(-c2cc(-c3ccccc3)nc(/N=C\\c3ccccc3)n2)c(O)c1", "values": [{"measurement": "TGI", "setting": "[1]", "value": "> 100", "unit": "µM"}, {"measurement": "TGI", "setting": "[2]", "value": "> 100", "unit": "µM"}, {"measurement": "TGI", "setting": "[3]", "value": "> 100", "unit": "µM"}, {"measurement": "TGI", "setting": "[4]", "value": "> 100", "unit": "µM"}, {"measurement": "TGI", "setting": "[5]", "value": "> 100", "unit": "µM"}, {"measurement": "TGI", "setting": "[6]", "value": 8.39, "unit": "µM"}, {"measurement": "TGI", "setting": "[7]", "value": "> 100", "unit": "µM"}, {"measurement": "TGI", "setting": "[8]", "value": "> 100", "unit": "µM"}, {"measurement": "TGI", "setting": "[9]", "value": "> 100", "unit": "µM"}, {"measurement": "TGI", "setting": "[10]", "value": "> 100", "unit": "µM"}, {"measurement": "TGI", "setting": "[11]", "value": "> 100", "unit": "µM"}, {"measurement": "TGI", "setting": "[12]", "value": "> 100", "unit": "µM"}, {"measurement": "TGI", "setting": "[13]", "value": "> 100", "unit": "µM"}, {"measurement": "TGI", "setting": "[14]", "value": "> 35.4", "unit": "µM"}, {"measurement": "TGI", "setting": "[15]", "value": "> 100", "unit": "µM"}, {"measurement": "TGI", "setting": "[16]", "value": "> 100", "unit": "µM"}, {"measurement": "TGI", "setting": "[17]", "value": "> 100", "unit": "µM"}, {"measurement": "TGI", "setting": "[18]", "value": "> 100", "unit": "µM"}, {"measurement": "TGI", "setting": "[19]", "value": "> 100", "unit": "µM"}, {"measurement": "TGI", "setting": "[20]", "value": "> 100", "unit": "µM"}, {"measurement": "TGI", "setting": "[21]", "value": "> 100", "unit": "µM"}, {"measurement": "TGI", "setting": "[22]", "value": "> 100", "unit": "µM"}, {"measurement": "TGI", "setting": "[23]", "value": "> 100", "unit": "µM"}, {"measurement": "TGI", "setting": "[24]", "value": "> 100", "unit": "µM"}, {"measurement": "TGI", "setting": "[25]", "value": "> 100", "unit": "µM"}, {"measurement": "TGI", "setting": "[26]", "value": "> 100", "unit": "µM"}, {"measurement": "TGI", "setting": "[27]", "value": "> 100", "unit": "µM"}, {"measurement": "TGI", "setting": "[28]", "value": "> 100", "unit": "µM"}, {"measurement": "TGI", "setting": "[29]", "value": "> 100", "unit": "µM"}, {"measurement": "TGI", "setting": "[30]", "value": "> 100", "unit": "µM"}, {"measurement": "TGI", "setting": "[31]", "value": "> 100", "unit": "µM"}, {"measurement": "TGI", "setting": "[32]", "value": "> 100", "unit": "µM"}, {"measurement": "TGI", "setting": "[33]", "value": "> 100", "unit": "µM"}, {"measurement": "TGI", "setting": "[34]", "value": "> 100", "unit": "µM"}, {"measurement": "TGI", "setting": "[35]", "value": "> 100", "unit": "µM"}, {"measurement": "TGI", "setting": "[36]", "value": "> 100", "unit": "µM"}, {"measurement": "TGI", "setting": "[37]", "value": "> 100", "unit": "µM"}, {"measurement": "TGI", "setting": "[38]", "value": "> 100", "unit": "µM"}, {"measurement": "TGI", "setting": "[39]", "value": "> 100", "unit": "µM"}, {"measurement": "TGI", "setting": "[40]", "value": 5.71, "unit": "µM"}, {"measurement": "TGI", "setting": "[41]", "value": "> 100", "unit": "µM"}, {"measurement": "TGI", "setting": "[42]", "value": "> 100", "unit": "µM"}, {"measurement": "TGI", "setting": "[43]", "value": "> 100", "unit": "µM"}, {"measurement": "TGI", "setting": "[44]", "value": "> 100", "unit": "µM"}, {"measurement": "TGI", "setting": "[45]", "value": "> 100", "unit": "µM"}, {"measurement": "TGI", "setting": "[46]", "value": "> 100", "unit": "µM"}, {"measurement": "TGI", "setting": "[47]", "value": "> 100", "unit": "µM"}, {"measurement": "TGI", "setting": "[48]", "value": "> 100", "unit": "µM"}, {"measurement": "TGI", "setting": "[49]", "value": "> 100", "unit": "µM"}, {"measurement": "TGI", "setting": "[50]", "value": "> 100", "unit": "µM"}, {"measurement": "TGI", "setting": "[51]", "value": "> 100", "unit": "µM"}, {"measurement": "TGI", "setting": "[52]", "value": "> 24.1", "unit": "µM"}, {"measurement": "TGI", "setting": "[53]", "value": "> 100", "unit": "µM"}, {"measurement": "TGI", "setting": "[54]", "value": "> 100", "unit": "µM"}, {"measurement": "TGI", "setting": "[55]", "value": "> 100", "unit": "µM"}, {"measurement": "TGI", "setting": "[56]", "value": "> 100", "unit": "µM"}, {"measurement": "TGI", "setting": "[57]", "value": "> 100", "unit": "µM"}, {"measurement": "TGI", "setting": "[58]", "value": "> 100", "unit": "µM"}, {"measurement": "TGI", "setting": "[59]", "value": "> 100", "unit": "µM"}]}]}
